Experimental data reported in ChEMBL document CHEMBL3046085, “Synthesis, characterization and in vitro cytotoxic properties of some new Schiff and Mannich bases in Hep G2 cells” (Med Chem Res, 2011).
Values after ≈ are worked out from the molar mass of the structure shown.

Key:
HepG2 [1] = experiment: Cytotoxicity against Homo sapiens (human) HepG2 cells after 24 hr by MTT assay; assay type: functional, cell-based; conditions: HepG2, 24 h
HepG2 [2] = experiment: Cytotoxicity against Homo sapiens (human) HepG2 cells assessed as cell survival at 0.001 g/l after 24 hr by MTT assay (reference value: 78.07 +/- 1.89 to 95.31 +/- 3.09%); assay type: functional; conditions: HepG2, 24 h, read-out: Survival
HepG2 [3] = experiment: Cytotoxicity against Homo sapiens (human) HepG2 cells assessed as cell survival at 0.1 g/l after 24 hr by MTT assay (reference value: 78.07 +/- 1.89 to 95.31 +/- 3.09%); assay type: functional; conditions: HepG2, 24 h, read-out: Survival
HepG2 [4] = experiment: Cytotoxicity against Homo sapiens (human) HepG2 cells assessed as cell survival at 0.0001 g/l after 24 hr by MTT assay (reference value: 78.07 +/- 1.89 to 95.31 +/- 3.09%); assay type: functional; conditions: HepG2, 24 h, read-out: Survival
HepG2 [5] = experiment: Cytotoxicity against Homo sapiens (human) HepG2 cells assessed as cell survival at 0.01 g/l after 24 hr by MTT assay (reference value: 78.07 +/- 1.89 to 95.31 +/- 3.09%); assay type: functional; conditions: HepG2, 24 h, read-out: Survival

SMILES | IC50 (HepG2 [1]) [µg/mL] | other results
COc1cccc2c1C(=O)c1c(O)c3c(c(O)c1C2=O)C[C@@](O)(C(=O)CO)C[C@@H]3O[C@H]1C[C@H](N)[C@H](O)[C@H](C)O1 [DOXORUBICIN] | 17 (≈ 31.3 µM) | viability at 1 µg/mL (HepG2 [2]): 74.2%; viability at 100 µg/mL (HepG2 [3]): 35.9%; viability at 0.1 µg/mL (HepG2 [4]): 90%; viability at 10 µg/mL (HepG2 [5]): 51.2%
Cc1ccc(OCc2nn(CN(c3ccccc3)c3ccccc3)c(=S)n2/N=C/c2c[nH]nc2-c2ccc(Cl)cc2)cc1 | 97 (≈ 160 µM) | –
Cc1ccc(OCc2nn(CN(c3ccccc3)c3ccccc3)c(=S)n2/N=C/c2c[nH]nc2-c2ccc(F)cc2)cc1 | 90 (≈ 153 µM) | –
Cc1ccccc1OCc1n[nH]c(=S)n1/N=C/c1c[nH]nc1-c1ccc(F)cc1 | 48 (≈ 118 µM) | –
Cc1ccccc1OCc1nn(CN2CCOCC2)c(=S)n1/N=C/c1c[nH]nc1-c1ccc(Cl)cc1 | 54 (≈ 103 µM) | –
Fc1ccc(-c2n[nH]cc2/C=N/n2c(COc3ccccc3)n[nH]c2=S)cc1 | 71 (≈ 180 µM) | –
Cc1ccc(OCc2n[nH]c(=S)n2/N=C/c2c[nH]nc2-c2ccc(F)cc2)cc1 | 45 (≈ 110 µM) | –
Cc1ccc(OCc2n[nH]c(=S)n2/N=C/c2c[nH]nc2-c2ccc(Cl)cc2)cc1 | 28 (≈ 65.9 µM) | –
Cc1ccc(OCc2nn(CN3CCOCC3)c(=S)n2/N=C/c2c[nH]nc2-c2ccc(Cl)cc2)cc1 | 54 (≈ 103 µM) | –
Cc1ccccc1OCc1n[nH]c(=S)n1/N=C/c1c[nH]nc1-c1ccc(Cl)cc1 | 44 (≈ 104 µM) | –
CCc1n[nH]cc1/C=N/n1c(COc2ccc(C)cc2)n[nH]c1=S | > 100 | –
Fc1ccc(-c2n[nH]cc2/C=N/n2c(COc3ccccc3Cl)n[nH]c2=S)cc1 | 71 (≈ 166 µM) | –
S=c1[nH]nc(COc2ccccc2)n1/N=C/c1c[nH]nc1-c1ccc(Cl)cc1 | 18 (≈ 43.8 µM) | –
Cc1ccc(OCc2nn(CN3CCOCC3)c(=S)n2/N=C/c2c[nH]nc2-c2ccc(F)cc2)cc1 | 34 (≈ 67 µM) | –
